Results published in US8680052B1, “Methods of treating, reducing the incidence of, and/or preventing ischemic events” (The Medicines Company, priority 2013, dated 2014).

Tests used:
[1] = molecular target: T1, P2Y12 receptor (Homo sapiens, UniProt Q9H244); test: Example 2 substudy: platelet function by VerifyNow P2Y12 Assay; format: in vivo
T1 construct: from tissue; host or cells: platelets in whole blood of patients
Protocol: Platelet function parameters were measured using the VerifyNow® P2Y12 Assay (Accumetrics, San Diego, Calif.). Samples were taken before study drug administration, at approximately 2 hours (during cangrelor/placebo infusion), and 10 hours or next day following randomization.

[2] = tested on: platelets; test: Example 4: light transmission aggregometry (LTA) induced by 5 and 20 μM ADP; format: in vivo, human
Protocol: The study involved 12 patients who met the criteria of being 18-75 years of age, having coronary artery disease (CAD) documented by a previous MI or coronary revascularization, and taking 81 mg of aspirin daily. […] Prohibited concomitant medications included strong and potent CYP3A inhibitors, simvastatin and lovastatin at doses more than 40 mg/day, omeprazole or esomeprazole, and digoxin. Use of non-steroidal anti-inflammatory agents was discouraged during study participation but not prohibited.
Each patient was administered a 30 μg/kg bolus of cangrelor followed immediately by a 2 hr infusion at a rate of 4.0 μg/kg/min. A loading dose of ticagrelor (180 mg) was given after 0.5 hr or 1.25 hr (n=6 for each). Blood for pharmacodynamic platelet function studies was taken after 0.5 or 1.25 hr (corresponding to the time of ticagrelor load, n=6 for each), and then at 1.75, 2, 2.25, 2.5, 2.75, 3, 4, and 5.25 hr. Patients were assigned randomly to receive either 6 (n=6) or 7 (n=6) doses of ticagrelor to be taken every 12 hours following the discontinuation of the infusion of cangrelor. On study day 5, each patient was administered a 30 μg/kg bolus of cangrelor followed immediately by a 2 hr infusion at a rate of 4.0 μg/kg/min. Blood for pharmacodynamic assessment was taken after 1 and 2 hr. Adverse events were queried throughout study participation that ended with a telephone interview performed on study day 10-12.
Pharmacodynamic assessment included light transmission aggregometry (LTA), VerifyNow® P2Y12 assay, vasodilator-stimulated phosphoprotein (VASP) index, and platelet activation measured with the use of flow cytometry. Assessment of LTA, VerifyNow®, and platelet activation with the use of flow cytometry was performed within 30 min of blood being taken. In the case of flow cytometry, samples were processed to fixation and then batched for analysis. For VASP, index samples were batched and processed as recommended by the vendor within 2 h of blood being taken. This approach limited the time from fixation of VASP index to flow analysis to less than 1 h.
LTA induced by 5 μM and 20 μM adenosine diphosphate (ADP) was quantified ex vivo (i.e. in non-adjusted platelet rich plasma). Platelet-poor plasma was set as 100% aggregation, and both maximal (peak) and terminal (at 300 s) aggregation were measured with a PAP4 aggregometer (BioData, Horsham, Pa.). VerifyNow® P2Y12 assay (Accumetrics Inc, San Diego, Calif.) that measures the effects of drugs on the P2Y12 receptor by activating platelets with prostaglandin El in addition to ADP was used in accordance with the instructions provided by the manufacturer. Platelet reactivity was expressed in P2Y12 reaction units (PRU). Activation of platelets was identified with the use of flow cytometry as previously described.^17. And to determine the VASP index, a commercially available kit (Diagnostica Stago, Inc, Parsippany NJ) was used. ^17 Schneider D J, Sobel B E. Streamlining the design of promising clinical trials: in-vitro testing of antithrombotic regimens and multiple agonists of platelet activation. Coron Artery Dis. 2009; 20:175-8.

[3] = reference 5.25 h, Ticagrelor at 0.5 h
[4] = reference 5.25 h, Ticagrelor at 1.25 h
[5] = ticagrelor at 0.5 hr, 1.75 hr later (at 2.25 hr)
[6] = ticagrelor at 1.25 hr, 1.75 hr after the loading dose (at 3.0 hr)

T1 sequence (Q9H244 whole entry): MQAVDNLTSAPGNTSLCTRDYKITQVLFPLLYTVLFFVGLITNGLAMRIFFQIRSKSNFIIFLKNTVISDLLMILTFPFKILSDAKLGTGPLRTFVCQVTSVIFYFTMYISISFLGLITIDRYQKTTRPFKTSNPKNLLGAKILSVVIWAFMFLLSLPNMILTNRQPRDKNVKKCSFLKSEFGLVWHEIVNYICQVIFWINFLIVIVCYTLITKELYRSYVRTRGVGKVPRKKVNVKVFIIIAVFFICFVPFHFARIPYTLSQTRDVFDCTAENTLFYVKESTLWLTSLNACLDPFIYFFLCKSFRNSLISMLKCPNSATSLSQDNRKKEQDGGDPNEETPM

SMILES: COC(=O)[C@H](c1ccccc1Cl)N1CCc2sccc2C1 [Clopidogrel, clopidogrel, reference compound]
- median PRU (VerifyNow P2Y12 assay) ([1]; 12-24 hours after discontinuation of the cangrelor infusion): 206 PRU
- median PRU (VerifyNow P2Y12 assay) ([1]; during the study drug infusion (approx. 2 hours)): 277 PRU

SMILES: CCCSc1nc(N[C@@H]2C[C@H]2c2ccc(F)c(F)c2)c2nnn([C@@H]3C[C@H](OCCO)[C@@H](O)[C@H]3O)c2n1 [ticagrelor]
- IPA, 5 μM ADP, LTA ([2]; 2.25 h, All): 87 ± 8%
- IPA, 20 μM ADP, LTA ([2]; 2.25 h, All): 83 ± 14%
- PR, 5 μM ADP, LTA ([2]; 2.25 h, All): 7 ± 5%
- PR, 20 μM ADP, LTA ([2]; 2.25 h, All): 12 ± 11%
- IPA, 5 μM ADP, LTA ([2]; 2.25 h, Ticagrelor at 0.5 h): 84 ± 10%
- IPA, 20 μM ADP, LTA ([2]; 2.25 h, Ticagrelor at 0.5 h): 82 ± 13%
- PR, 5 μM ADP, LTA ([2]; 2.25 h, Ticagrelor at 0.5 h): 7.7 ± 5.9%
- PR, 20 μM ADP, LTA ([2]; 2.25 h, Ticagrelor at 0.5 h): 13 ± 9.3%
- IPA, 5 μM ADP, LTA ([2]; 2.25 h, Ticagrelor at 1.25 h): 89 ± 5%
- IPA, 20 μM ADP, LTA ([2]; 2.25 h, Ticagrelor at 1.25 h): 84 ± 17%
- PR, 5 μM ADP, LTA ([2]; 2.25 h, Ticagrelor at 1.25 h): 5.3 ± 3.6%
- PR, 20 μM ADP, LTA ([2]; 2.25 h, Ticagrelor at 1.25 h): 11 ± 12%
- IPA, 5 μM ADP, LTA ([2]; 2.5 h, All): 79 ± 15%
- IPA, 20 μM ADP, LTA ([2]; 2.5 h, All): 72 ± 26%
- PR, 5 μM ADP, LTA ([2]; 2.5 h, All): 10 ± 7%
- PR, 20 μM ADP, LTA ([2]; 2.5 h, All): 19 ± 16%
- IPA, 5 μM ADP, LTA ([2]; 2.5 h, Ticagrelor at 0.5 h): 82 ± 13%
- IPA, 20 μM ADP, LTA ([2]; 2.5 h, Ticagrelor at 0.5 h): 78 ± 21%
- PR, 5 μM ADP, LTA ([2]; 2.5 h, Ticagrelor at 0.5 h): 10 ± 5.7%
- PR, 20 μM ADP, LTA ([2]; 2.5 h, Ticagrelor at 0.5 h): 16 ± 15%
- IPA, 5 μM ADP, LTA ([2]; 2.5 h, Ticagrelor at 1.25 h): 76 ± 18%
- IPA, 20 μM ADP, LTA ([2]; 2.5 h, Ticagrelor at 1.25 h): 65 ± 30%
- PR, 5 μM ADP, LTA ([2]; 2.5 h, Ticagrelor at 1.25 h): 11 ± 9%
- PR, 20 μM ADP, LTA ([2]; 2.5 h, Ticagrelor at 1.25 h): 21 ± 17%
- IPA, 5 μM ADP, LTA ([2]; 2.75 h, All): 86 ± 11%
- IPA, 20 μM ADP, LTA ([2]; 2.75 h, All): 86 ± 15%
- PR, 5 μM ADP, LTA ([2]; 2.75 h, All): 5.8 ± 3%
- PR, 20 μM ADP, LTA ([2]; 2.75 h, All): 10 ± 9.2%
- IPA, 5 μM ADP, LTA ([2]; 2.75 h, Ticagrelor at 0.5 h): 87 ± 7%
- IPA, 20 μM ADP, LTA ([2]; 2.75 h, Ticagrelor at 0.5 h): 84 ± 15%
- PR, 5 μM ADP, LTA ([2]; 2.75 h, Ticagrelor at 0.5 h): 6.7 ± 4.1%
- PR, 20 μM ADP, LTA ([2]; 2.75 h, Ticagrelor at 0.5 h): 12 ± 11%
- IPA, 5 μM ADP, LTA ([2]; 2.75 h, Ticagrelor at 1.25 h): 85 ± 15%
- IPA, 20 μM ADP, LTA ([2]; 2.75 h, Ticagrelor at 1.25 h): 87 ± 15%
- PR, 5 μM ADP, LTA ([2]; 2.75 h, Ticagrelor at 1.25 h): 4.8 ± 0.8%
- PR, 20 μM ADP, LTA ([2]; 2.75 h, Ticagrelor at 1.25 h): 7.8 ± 7.2%
- IPA, 5 μM ADP, LTA ([2]; 3 h, All): 86 ± 17%
- IPA, 20 μM ADP, LTA ([2]; 3 h, All): 90 ± 9%
- PR, 5 μM ADP, LTA ([2]; 3 h, All): 5.5 ± 5.2%
- PR, 20 μM ADP, LTA ([2]; 3 h, All): 7.1 ± 6.3%
- IPA, 5 μM ADP, LTA ([2]; 3 h, Ticagrelor at 0.5 h): 85 ± 15%
- IPA, 20 μM ADP, LTA ([2]; 3 h, Ticagrelor at 0.5 h): 87 ± 10%
- PR, 5 μM ADP, LTA ([2]; 3 h, Ticagrelor at 0.5 h): 8 ± 6.5%
- PR, 20 μM ADP, LTA ([2]; 3 h, Ticagrelor at 0.5 h): 10 ± 7.6%
- IPA, 5 μM ADP, LTA ([2]; 3 h, Ticagrelor at 1.25 h): 87 ± 21%
- IPA, 20 μM ADP, LTA ([2]; 3 h, Ticagrelor at 1.25 h): 93 ± 7%
- PR, 5 μM ADP, LTA ([2]; 3 h, Ticagrelor at 1.25 h): 3 ± 1.5%
- PR, 20 μM ADP, LTA ([2]; 3 h, Ticagrelor at 1.25 h): 4.5 ± 3.4%
- IPA, 5 μM ADP, LTA ([2]; 4 h, All): 88 ± 9%
- IPA, 20 μM ADP, LTA ([2]; 4 h, All): 94 ± 4%
- PR, 5 μM ADP, LTA ([2]; 4 h, All): 5.5 ± 3.3%
- PR, 20 μM ADP, LTA ([2]; 4 h, All): 4.6 ± 3.6%
- IPA, 5 μM ADP, LTA ([2]; 4 h, Ticagrelor at 0.5 h): 87 ± 5%
- IPA, 20 μM ADP, LTA ([2]; 4 h, Ticagrelor at 0.5 h): 91 ± 4%
- PR, 5 μM ADP, LTA ([2]; 4 h, Ticagrelor at 0.5 h): 7.3 ± 3.9%
- PR, 20 μM ADP, LTA ([2]; 4 h, Ticagrelor at 0.5 h): 6.7 ± 3.7%
- IPA, 5 μM ADP, LTA ([2]; 4 h, Ticagrelor at 1.25 h): 89 ± 12%
- IPA, 20 μM ADP, LTA ([2]; 4 h, Ticagrelor at 1.25 h): 96 ± 4%
- PR, 5 μM ADP, LTA ([2]; 4 h, Ticagrelor at 1.25 h): 3.7 ± 1%
- PR, 20 μM ADP, LTA ([2]; 4 h, Ticagrelor at 1.25 h): 2.5 ± 1.9%
- residual platelet reactivity ([2]; 12 hours after the last dose of ticagrelor, study day 5): 12±9%
- residual platelet reactivity ([2]; at 2.5 hr, ticagrelor 180 mg given at 0.5 hr of 2 hr cangrelor infusion): 16±15%
- IPA, 5 μM ADP, LTA ([2]; reference 5.25 h, All): 94 ± 5%
- IPA, 20 μM ADP, LTA ([2]; reference 5.25 h, All): 95 ± 4%
- PR, 5 μM ADP, LTA ([2]; reference 5.25 h, All): 3.1 ± 2.8%
- PR, 20 μM ADP, LTA ([2]; reference 5.25 h, All): 4 ± 3.4%
- IPA, 5 μM ADP, LTA [2, 3]: 92 ± 6%
- IPA, 20 μM ADP, LTA [2, 3]: 92 ± 4%
- PR, 5 μM ADP, LTA [2, 3]: 4.2 ± 2%
- PR, 20 μM ADP, LTA [2, 3]: 5.8 ± 3.1%
- IPA, 5 μM ADP, LTA [2, 4]: 97 ± 4%
- IPA, 20 μM ADP, LTA [2, 4]: 97 ± 4%
- PR, 5 μM ADP, LTA [2, 4]: 2 ± 2.3%
- PR, 20 μM ADP, LTA [2, 4]: 2.2 ± 2.7%
- extent of inhibition [2, 5]: 82±13%
- residual platelet reactivity [2, 5]: 13±9.3%
- extent of inhibition [2, 6]: 93±7%
- residual platelet reactivity [2, 6]: 4.5±3.4%
